Where “and” joins values, the source holds several entries; their conditions need not be identical. Identical values can stand only once.
Experiments:
[1] = Methyl mercaptan suppression analysis by GC-PFPD, aqueous conditions (Examples 1-4); conditions: for Methyl Mercaptan Suppression (%): ethanol/deionized water, about 10 ppm methyl mercaptan sodium salt, room temperature 2 hours, replicate values; for suppression of the amount of methyl mercaptan (in words): lactone alone, 100 or 200 ppm, aqueous conditions, Tables 1-4
Text: (§1) Methyl mercaptan suppression analysis was used to evaluate malodor elimination effects of the compounds. Methyl mercaptan is known to be a major oral malodor material. For example, methyl mercaptan is found in the oral cavity of halitosis patients and also found in malodor producing food products (e.g., garlic). A multipurpose sampler (MPS 2, Gerstel Inc, Baltimore Md.)—Gas Chromatography (6890N, Agilent Technologies Inc, Wilmington Del.) with the Pulsed Flame Photometric Detector (PFPD, model 5380, OI Analytical, College Station, Tx) was used for the methyl mercaptan analysis. 0.5% (w/v) sodium thiomethoxide, which is a sodium salt of methyl mercaptan (purchased from Aldrich chemical company, Inc. Allentown, Pa.) in deionized water was used as the methyl mercaptan stock solution, which was freshly prepared for every test day.
200 ppm or 100 ppm lactone (36 μl of 1% (200 ppm) or 0.5% (100 ppm) (w/v) of the test malodor eliminating compounds in 200 proof ethanol), 144 μl of 200 proof ethanol, and 1620 μl of deionized water were added into a 2 ml GC vial. The prepared vial was placed on a sample tray of the multipurpose sampler-GC-PFPD. 3.6 μl of methyl mercaptan stock solution was added in the GC vial using the multipurpose sampler, and the GC vial was left to sit at room temperature for 2 hours. 0.4 μl of the test solution was injected into the GC inlet (an Agilent tapered focus liner with glass wool was installed, split mode, 10:1 split ratio) using the multipurpose sampler. The carrier gas flow rate was 1.5 ml/min (in constant flow mode) and the Agilent DB-1MS UI column (L60 m×ID 0.250 mm×thickness 0.25 μm) was used for the analysis. […] The GC oven was held at 280° C. for 5 minutes. Ethanol alone was used as a blank control. The final concentration of test malodor eliminating compounds were 200 ppm or 100 ppm, and final methyl mercaptan sodium salt concentration was about 10 ppm.
Malodor (methyl mercaptan) suppression was calculated as follows: Malodor (methyl mercaptan) Suppression (%)=(GC area of blank control sample−GC area of test sample)/GC area of blank control sample×100.

[2] = Methyl mercaptan suppression analysis by GC-PFPD, non-aqueous (ethanol) conditions (Examples 5-9); conditions: for Methyl Mercaptan Suppression (%): 200 proof ethanol, 10 ppm methyl mercaptan sodium salt, room temperature 2 hours
Text: as §1
For the screening test, 100 ppm lactone (20 μl of 0.5% of lactone in 200 proof ethanol (w/v)), 300 ppm lactone (30 μl of 1% of lactone in 200 proof ethanol (w/v)), 200 ppm phenolic compound (20 μl of 1% of phenolic compound in 200 proof ethanol (w/v)) and 300 ppm phenolic compound (30 μl of 1% of phenolic compound in 200 proof ethanol (w/v)) were tested. In addition, various combinations of a lactone and a phenolic compound were tested. The lactones and phenolic compounds were pipetted into 2 ml GC vials, and 200 proof ethanol was added up to 1000 μl. The prepared vial was placed on a sample tray of the multipurpose sampler-GC-PFPD. 2 μl methyl mercaptan stock solution was added in the GC vial utilizing the multipurpose sampler, and the vial was left to sit at room temperature for 2 hours. 0.4 μl of the test solution was injected into the GC inlet (an Agilent tapered focus liner with glass wool was installed, split mode, 10:1 split ratio) using the multipurpose sampler. The carrier gas flow rate was 1.5 ml/min (in constant flow mode) and the Agilent DB-1 MS UI column (L60 m×ID 0.250 mm×thickness 0.25 μm) was used for the analysis. The temperature of the GC oven started at 40° C. and after 5 minutes, the temperature was increased to 180° C. at a speed of 20° C./min, and subsequently to 280° C. at a speed of 40° C./min, which was held for 5 minutes.
200 proof ethanol alone was used as a blank control. The final concentration of the methyl mercaptan sodium salt was 10 ppm.
Malodor (methyl mercaptan) suppression was calculated as follows: Malodor (methyl mercaptan) Suppression (%)=(GC area of blank control sample−GC area of test sample)/GC area of blank control sample×100.

[3] = 200 ppm test compound alone, values of several testing sets
[4] = 300 ppm test compound alone, replicate values

Row | Compound | Methyl Mercaptan Suppression (%) ([1]; 100 ppm test compound alone) | suppression of the amount of methyl mercaptan (in words) [1] | Methyl Mercaptan Suppression (%) [2, 4] | also measured
1 | O=C1C=CCO1 [2(5H) furanone] | 97% and 95% and 100% | suppressed the amount of methyl mercaptan |  | 
2 | CCCCOCc1ccc(O)c(OC)c1 [Hotact ®VBE, vanillyl butyl ether] |  |  | 13% (2×) and 10% | Methyl Mercaptan Suppression (%) [2, 3]: 13% and 7% and 8% and 10% and 12% and 17%
3 | CC1=CCC(=O)O1 [angelica lactone alpha] | 47% and 31% and 69% | suppressed the amount of methyl mercaptan | 32% and 22% and 30% | Methyl Mercaptan Suppression (%) ([1]; 200 ppm test compound alone): 94% and 93% and 86%
4 | CC1C=CC(=O)O1 (stereo not drawn) [angelica lactone beta] | 10% and 26% and 41% | suppressed the amount of methyl mercaptan |  | 
5 | O=C1O[C@H]([C@@H](O)CO)C(O)=C1O [ascorbic acid, reference compound] |  |  |  | Methyl Mercaptan Suppression (%) [2, 3]: 11%; synergistic malodor suppression or elimination effect of the combination with a phenolic compound (in words) ([2]; ethanol conditions, combination compared with additive effect of single components): do not exhibit a synergistic malodor elimination effect when combined with phenolic compounds
6 | C=CCc1ccc(O)c(OC)c1 [eugenol] |  |  | 8% and 14% and 11% | 
7 | COC(=O)c1ccccc1O [methyl salicylate] |  |  | 9% and 10% and 8% | 
8 | CC1=C2CCC(C)CC2OC1=O (stereo not shown) [mint lactone] |  | suppressed the amount of methyl mercaptan |  | Methyl Mercaptan Suppression (%) ([1]; 200 ppm test compound alone): 87% and 100% (2×)
